Measurements from patent US20050059735A1, “Cyclic amino acid derivatives useful as pharmaceutical agents” (priority 2000, published 2005).
Like-named read-outs stand apart in the source and are kept apart here.

How the values were obtained:
[1] = rat, in vivo, po, 5 mg/kg
[2] = in vivo; settings: rat, po

Q: Which half-life [1] does the source give for `O=C(CC1(CNC(=O)c2ccccc2)CCCCC1)OCc1ccccc1` [Example 10, [1-(Benzoylamino-methyl)-cyclohexyl]-acetic acid benzyl ester] here?
A: about 6 hrs

Q: Which half-life [2] does the source give for `NCC1(CC(=O)O)CCCCC1` [gabapentin, 1-(aminomethyl)-cyclohexylacetic acid] here?
A: 1.2 h
